According to ChEMBL document CHEMBL3832073, “DailyMed|setid=217e52b5-3a7b-4bbe-af3c-b18de7d426c3 | ABILIFY - aripiprazole tablet|Rebel Distributors Corp”:

What was measured:
[1] = Evaluation of pharmacokinetic parameters for Aripiprazole following single oral administration of azipiprazole.; format: ADME, organism-based; settings: human, in vivo, dosed compound id 19, dosed compound name ARIPIPRAZOLE, regimen Single dose, tissue Plasma
[2] = Evaluation of pharmacokinetic parameters for Aripiprazole following oral, intravenous or intramuscular administration of azipiprazole.; format: ADME, organism-based; settings: human, in vivo, dosed compound id 19, dosed compound name ARIPIPRAZOLE, tissue Plasma

Tmax [1]: 3 to 5 h
bioavailability ([2]; im, at 5 mg, gender male and female, route intramuscular): 100%
Tmax ([2]; im, gender male and female, route intramuscular): 1 h
Vd ([2]; route iv, read-out: Vss): 404 L
Structure (SMILES): O=C1CCc2ccc(OCCCCN3CCN(c4cccc(Cl)c4Cl)CC3)cc2N1 [ARIPIPRAZOLE]
